biological target: T1, human TLR8 (Homo sapiens, UniProt Q9NR97); assay: HEK293-Blue-hTLR-8 cells assay; assay type: cell-based; conditions: HEK293-Blue-hTLR8 cells, R848 stimulation, 20 hrs, SEAP reporter; read-out: HEK/hTLR8 IC50
T1 sequence (Q9NR97 27-1041): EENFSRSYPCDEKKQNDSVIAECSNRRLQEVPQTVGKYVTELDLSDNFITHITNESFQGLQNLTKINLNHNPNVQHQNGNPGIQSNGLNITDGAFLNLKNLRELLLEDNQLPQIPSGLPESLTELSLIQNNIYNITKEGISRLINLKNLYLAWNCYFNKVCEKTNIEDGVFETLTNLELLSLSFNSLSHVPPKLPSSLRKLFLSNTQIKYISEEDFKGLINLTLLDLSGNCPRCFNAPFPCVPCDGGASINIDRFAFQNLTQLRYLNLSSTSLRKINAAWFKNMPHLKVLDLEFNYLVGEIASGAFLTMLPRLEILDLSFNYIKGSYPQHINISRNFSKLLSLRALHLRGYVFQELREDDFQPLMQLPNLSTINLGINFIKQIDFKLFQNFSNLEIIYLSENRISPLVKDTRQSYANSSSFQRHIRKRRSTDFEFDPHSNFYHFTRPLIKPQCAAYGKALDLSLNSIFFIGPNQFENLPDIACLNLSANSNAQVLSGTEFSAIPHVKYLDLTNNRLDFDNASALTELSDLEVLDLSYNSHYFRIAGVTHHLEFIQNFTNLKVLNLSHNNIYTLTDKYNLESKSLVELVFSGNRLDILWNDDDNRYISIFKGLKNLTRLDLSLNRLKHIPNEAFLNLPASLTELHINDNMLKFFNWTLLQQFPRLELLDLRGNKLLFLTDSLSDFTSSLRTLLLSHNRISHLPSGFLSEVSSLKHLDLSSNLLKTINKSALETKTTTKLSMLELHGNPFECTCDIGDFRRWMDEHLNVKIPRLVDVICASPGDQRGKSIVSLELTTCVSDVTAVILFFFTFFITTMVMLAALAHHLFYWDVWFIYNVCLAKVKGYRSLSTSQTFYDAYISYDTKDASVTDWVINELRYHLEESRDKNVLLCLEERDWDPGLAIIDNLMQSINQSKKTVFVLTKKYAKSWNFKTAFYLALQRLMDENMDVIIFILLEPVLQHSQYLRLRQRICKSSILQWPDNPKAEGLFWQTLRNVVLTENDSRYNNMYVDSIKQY
Description: HEK293-Blue-hTLR-8 Cells Assay:
A stable HEK293-Blue-hTLR-8 cell line was purchased from InvivoGen (Cat. #: hkb-htlr8, San Diego, California, USA). These cells were originally designed for studying the stimulation of human TLR8 by monitoring the activation of NF-κB. A SEAP (secreted embryonic alkaline phosphatase) reporter gene was placed under the control of the IFN-β minimal promoter fused to five NF-κB and AP-1-binding sites. The SEAP was induced by activating NF-κB and AP-1 via stimulating HEK-Blue hTLR8 cells with TLR8 ligands. Therefore the reporter expression was declined by TLR8 antagonist under the stimulation of a ligand, such as R848, for incubation of 20 hrs. The cell culture supernatant SEAP reporter activity was determined using QUANTI-Blue™kit (Cat. #: rep-qb1, Invivogen, San Diego, Ca, USA) at a wavelength of 640 nm, a detection medium that turns purple or blue in the presence of alkaline phosphatase.
HEK293-Blue-hTLR8 cells were incubated at a density of 250,000-450,000 cells/mL in a volume of 170 μL in a 96-well plate in Dulbecco's Modified Eagle's medium (DMEM) containing 4.5 g/L glucose, 50 U/mL penicillin, […], […], 2 mM L-glutamine, 10% (v/v) heat-inactivated fetal bovine serum with addition of 20 μL test compound 1n a serial dilution in the presence of final DMSO at 1% and 10 μL of 60 uM R848 in above DMEM, perform incubation under 37° C. in a CO2 incubator for 20 hrs. Then 20 μL of the supernatant from each well was incubated with 180 μL Quanti-blue substrate solution at 37° C. for 2 hrs and the absorbance was read at 620-655 nm using a spectrophotometer. The signaling pathway that TLR8 activation leads to downstream NF-κB activation has been widely accepted, and therefore similar reporter assay was modified for evaluating TLR8 antagonist.

Compound | IC50
C[C@@H]1CN(c2ccc(C#N)n3ncc(F)c23)C[C@@H]2c3ccc(N4C[C@H](N)[C@@](C)(O)C4)cc3CN12 [Example 112, 4-[(4R,10bS)-8-[(3S,4S)-4-amino-3-hydroxy-3-methyl-pyrrolidin-1-yl]-4-methyl-3,4,6,10b-tetrahydro-1H-pyrazino[2,1-a]isoindol-2-yl]-3-fluoro-pyrazolo[1,5-a]pyridine-7-carbonitrile] | 3.6 nM
C[C@@H]1CN(c2ccc(C#N)c3ncccc23)C[C@@H]2c3ccc(N4CCNC[C@](C)(O)C4)cc3CN12 [Example 55A, 5-[(4R,10bS)-8-[(6S)-6-hydroxy-6-methyl-1,4-diazepan-1-yl]-4-methyl-3,4,6,10b-tetrahydro-1H-pyrazino[2,1-a]isoindol-2-yl]quinoline-8-carbonitrile] | < 3.2 nM
CN[C@H]1CN(c2ccc3c(c2)CN2[C@H](C)CN(c4ccc(C#N)c5ncccc45)C[C@H]32)C[C@@H]1OC [Example 23, 5-[(4R,10bS)-8-[(3S,4S)-3-methoxy-4-(methylamino)pyrrolidin-1-yl]-4-methyl-3,4,6,10b-tetrahydro-1H-pyrazino[2,1-a]isoindol-2-yl]quinoline-8-carbonitrile] | < 3.2 nM
CO[C@H]1CN(c2ccc3c(c2)CN2[C@H](C)CN(c4ccc(C#N)n5nccc45)C[C@H]32)C[C@@H]1N [Example 95, 4-[(4R,10bS)-8-[(3S,4S)-3-amino-4-methoxy-pyrrolidin-1-yl]-4-methyl-3,4,6,10b-tetrahydro-1H-pyrazino[2,1-a]isoindol-2-yl]pyrazolo[1,5-a]pyridine-7-carbonitrile] | 4.6 nM
C[C@@H]1CN(c2ccc(C#N)c3ncccc23)C[C@@H]2c3ccc(C4CNC4)cc3CN12 [Example 29, 5-[(4R,10bS)-8-(azetidin-3-yl)-4-methyl-3,4,6,10b-tetrahydro-1H-pyrazino[2,1-a]isoindol-2-yl]quinoline-8-carbonitrile] | < 3.2 nM
C[C@@H]1CN(c2ccc(C#N)n3nccc23)C[C@@H]2c3ccc(N4C[C@H](N)[C@@](C)(O)C4)cc3CN12 [Example 109, 4-[(4R,10bS)-8-[(3S,4S)-4-amino-3-hydroxy-3-methyl-pyrrolidin-1-yl]-4-methyl-3,4,6,10b-tetrahydro-1H-pyrazino[2,1-a]isoindol-2-yl]pyrazolo[1,5-a]pyridine-7-carbonitrile] | 6.7 nM
C[C@@H]1CN(c2ccc(C#N)c3ncccc23)C[C@@H]2c3ccc(N[C@@H]4CNC[C@@H]4F)cc3CN12 [Example 32, 5-[(4R,10bS)-8-[[(3R,4S)-4-fluoropyrrolidin-3-yl]amino]-4-methyl-3,4,6,10b-tetrahydro-1H-pyrazino[2,1-a]isoindol-2-yl]quinoline-8-carbonitrile] | < 3.2 nM
C[C@@H]1CN(c2ccc(C#N)c3ncccc23)C[C@@H]2c3ccc(N4CCNCC(C)(O)C4)cc3CN12 (stereo partly drawn) [Example 55, 5-[(4R,10S)-8-(6-hydroxy-6-methyl-1,4-diazepan-1-yl)-4-methyl-3,4,6,10b-tetrahydro-1H-pyrazino[2,1-a]isoindol-2-yl]quinoline-8-carbonitrile] | < 3.2 nM
[2H]c1ccc2c(N3C[C@@H](C)N4Cc5cc(N6CC(C)(N)C6)ccc5[C@H]4C3)ccc(C#N)c2n1 [Example 92, 5-[(4R,10bS)-8-(3-amino-3-methyl-azetidin-1-yl)-4-methyl-3,4,6,10b-tetrahydro-1H-pyrazino[2,1-a]isoindol-2-yl]-2-deuterio-quinoline-8-carbonitrile] | < 0.3 nM
C[C@@H]1CN(c2ccc(C#N)c3ncccc23)C[C@@H]2c3ccc(C4CCNCC4)cc3CN12 [Example 9, 5-[(4R,10bS)-4-methyl-8-(4-piperidyl)-3,4,6,10b-tetrahydro-1H-pyrazino[2,1-a]isoindol-2-yl]quinoline-8-carbonitrile] | < 3.2 nM
CO[C@H]1CN(c2ccc3c(c2)CN2C3CN(c3ccc(C#N)c4ncccc34)C[C@H]2C)C[C@@H]1N (single isomer, unassigned) [Example 16A] | < 3.2 nM
C[C@@H]1CN(c2ccc(C#N)c3ncccc23)C[C@@H]2c3ccc(N4CCOC5CNCC54)cc3CN12 (stereo partly drawn) [Example 52, 5-[(4R,10bS)-8-(3,4a,5,6,7,7a-hexahydro-2H-pyrrolo[3,4-b][1,4]oxazin-4-yl)-4-methyl-3,4,6,10b-tetrahydro-1H-pyrazino[2,1-a]isoindol-2-yl]quinoline-8-carbonitrile] | < 3.2 nM
C[C@@H]1CN(c2ccc(C#N)n3nccc23)C[C@@H]2c3ccc(N4C[C@@H](N)[C@](C)(O)C4)cc3CN12 [Example 108, 4-[(4R,10bS)-8-[(3R,4R)-4-amino-3-hydroxy-3-methyl-pyrrolidin-1-yl]-4-methyl-3,4,6,10b-tetrahydro-1H-pyrazino[2,1-a]isoindol-2-yl]pyrazolo[1,5-a]pyridine-7-carbonitrile] | 8.9 nM
C[C@@H]1CN(c2ccc(C#N)n3nccc23)C[C@@H]2c3ccc(N4CC5CNCC(C4)O5)cc3CN12 [Example 107, 4-[(4R,10bS)-4-methyl-8-(9-oxa-3,7-diazabicyclo[3.3.1]nonan-3-yl)-3,4,6,10b-tetrahydro-1H-pyrazino[2,1-a]isoindol-2-yl]pyrazolo[1,5-a]pyridine-7-carbonitrile] | 16.5 nM
C[C@@H]1CN(c2ccc(C#N)n3nccc23)C[C@@H]2c3ccc(N4CC[C@@](C)(N)C4)cc3CN12 [Example 103, 4-[(4R,10bS)-8-[(3R)-3-amino-3-methyl-pyrrolidin-1-yl]-4-methyl-3,4,6,10b-tetrahydro-1H-pyrazino[2,1-a]isoindol-2-yl]pyrazolo[1,5-a]pyridine-7-carbonitrile] | 4.8 nM
C[C@@H]1CN(c2ccc(C#N)c3ncccc23)C[C@@H]2c3ccc(N4C[C@@H](F)[C@@H](N)C4)cc3CN12 [Example 46, 5-[(4R,10bS)-8-[(3S,4R)-3-amino-4-fluoro-pyrrolidin-1-yl]-4-methyl-3,4,6,10b-tetrahydro-1H-pyrazino[2,1-a]isoindol-2-yl]quinoline-8-carbonitrile] | 0.4 nM
C[C@@H]1CN(c2ccc(C#N)c3ncccc23)C[C@@H]2c3ccc(N4CCNC[C@@H](O)C4)cc3CN12 [Example 53B, 5-[(4R,10bS)-8-[(6R)-6-hydroxy-1,4-diazepan-1-yl]-4-methyl-3,4,6,10b-tetrahydro-1H-pyrazino[2,1-a]isoindol-2-yl]quinoline-8-carbonitrile] | < 3.2 nM
C[C@@H]1CN(c2ccc(C#N)c3ncccc23)C[C@@H]2c3ccc(N[C@@H]4CNC[C@H]4F)cc3CN12 [Example 33, 5-[(4R,10bS)-8-[[(3R,4R)-4-fluoropyrrolidin-3-yl]amino]-4-methyl-3,4,6,10b-tetrahydro-1H-pyrazino[2,1-a]isoindol-2-yl]quinoline-8-carbonitrile] | < 3.2 nM
C[C@@H]1CN(c2ccc(C#N)c3ncccc23)C[C@@H]2c3ccc(N4C[C@@H](N)[C@H](F)C4)cc3CN12 [Example 48, 5-[(4R,10bS)-8-[(3R,4R)-3-amino-4-fluoro-pyrrolidin-1-yl]-4-methyl-3,4,6,10b-tetrahydro-1H-pyrazino[2,1-a]isoindol-2-yl]quinoline-8-carbonitrile] | 0.7 nM
CO[C@@H]1CN(c2ccc3c(c2)CN2C3CN(c3ccc(C#N)c4ncccc34)C[C@H]2C)C[C@@H]1N (relative stereo) [Example 17, 5-[(4R,10bS)-8-[cis-3-amino-4-methoxy-pyrrolidin-1-yl]-4-methyl-3,4,6,10b-tetrahydro-1H-pyrazino[2,1-a]isoindol-2-yl]quinoline-8-carbonitrile] | < 3.2 nM

— patent US12157746B2, “Tetrahydro-1H-pyrazino[2,1-a]isoindolylquinoline compounds for the treatment of autoimmune disease” (F. HOFFMANN-LA ROCHE AG, priority 2018, dated 2024)
